Experimental data published in patent publication US20230023026A1, “METHODS FOR TREATMENT OF DAMAGED BILIARY DUCT” (Mor Research Applications Ltd., priority 2020, published 2023).
“Also recorded” adds a separate entry of the source.

Tests used:
[1] = tested on: EHBD explants from Mdr2−/− mice; test: Ex-vivo bile duct explant culture of Mdr2−/− EHBDs treated with L-NAC (H&E, K19/ZO-1 immunostaining, DAPI); type: cell-based, mouse
Experimental: Intact extrahepatic bile ducts (EHBDs) from 2-week (N≥12) and 16-week (N≥5) old mice were dissected, placed in ice-cold V-7 cold preservation buffer (Vitron) followed by incubation in cholangiocyte medium (also termed herein “BEC medium”), according to a modification of the protocol described by Karjoo and Wells (Isolation of neonatal extrahepatic cholangiocytes. J. Vis. Exp. 2014). Ducts were placed on roller inserts, treated with N-Acetyl-L-cysteine (L-NAC) and other compounds as noted below, and cultured in a high oxygenation Vitron Dynamic Organ Culture Incubator at 37° C., in 95% O2 and 5% CO2, for 1-3 days. In the incubator (designed to optimally incubate tissue slices), the explants rotated and were exposed to alternating periods in medium and 95% oxygen/5% CO2. Thin slices of tissue remained viable without visible damage or evidence of necrosis or apoptosis for at least 3 days.
1. Histological H&E staining of cells of ducts tissue was performed according to standard staining protocol, using two dyes: the basic dye haemotoxylin and the acidic dye eosin. Eosin reacted with cationic or basic components (also termed “acidophilic”) and stained red or pink acidophilic structures (e.g., cytoplasmic proteins, intracellular membranes, and extracellular fibers). Haematoxylin, reacted with anionic or acidic components (also termed “basophilic”) in cells and, when used in combination with aluminum ions (Al^3+), stained purplish blue basophilic structures (e.g., the nucleic acids in the nucleus and parts of the cytoplasm that contain RNA (e.g., ribosomes and the rough endoplasmic reticulum)). EHBDs were fixed in 4% paraformaldehyde (PFA) and embedded in paraffin, then sections (4-μm thick) were cut and stained with H&E.
3. Immunostaining or immunohistochemistry (IHC), which combines anatomical, immunological and biochemical techniques, was conducted in order to image discrete components in EHBDs tissues by using appropriately labeled antibodies that bind specifically to their target antigens in situ Immunohistochemistry made it possible to visualize the high-resolution distribution and localization of specific cellular components within cholangiocytes and within their proper histological context Immunostaining methodology included two main steps: sample preparation and sample staining. In the preparation step, ducts were fixed at 4% PFA for the preservation of cell morphology and tissue architecture. Thin sections of tissues (4-μm thick) attached to individual glass slides where then immunostained as described e.g., in Dipaola et al., 2013 (Hepatology 58:1486-1496, 2013), using antibodies against the cholangiocyte marker keratin 19 (K19, 1:10, Developmental Studies Hybridoma Bank, TROMAIII) and ZO-1 tight junction protein (anti-ZO1 antibody ab96587; Abcam).
4. […]

[2] = tested on: Mdr2−/− mice; test: In vivo treatment of Mdr2−/− mice with L-NAC in drinking water, liver histology (H&E, Sirius Red); parameters: species or system mouse; conditions: 4-month old Mdr2−/− mice, 30 gr/L L-NAC in drinking water for 3 weeks
Description: The homozygote, multidrug resistance protein 2 knockout mouse (Mdr2KO or Mdr2^−/−, also known as Abcb4^−/−) lacks the protein MDR2, a canalicular phospholipid flippase that causes a complete absence of phosphatidylcholine in bile. Mdr2^−/− mice are a well-established model for biliary ducts diseases resulting from, or associated with, highly toxic bile. Multidrug resistance P-glycoproteins, Mdr2 in mouse and MDR3 in human, are choline-containing phospholipid phosphatidylcholine (PC) transporters. In the liver, Mdr2/MDR3 are involved in the translocation of PC from the inner leaflet to the outer leaflet of the canalicular membrane of hepatocytes for direct extraction by bile acids. Bile acids and PC are essential components in the bile that form bile acid containing micelles to thereby reduce the toxic detergent activity of bile acid for hepatocytes and cholangiocytes and to establish physiological bile flow. Mdr2 knockout mouse successively develops liver inflammation, hepatic fibrosis, and hepatocellular carcinoma (HCC) at late ages. The pathogenesis in Mdr2^−/− mice is commonly considered to be caused by increased levels of free toxic bile acids in the biliary canaliculus, which damages hepatocytes and cholangiocytes and provokes liver inflammation. This cholangiopathy is similar to human PSC. The wild type and Mdr2 knockout mice used in embodiments described herein are male and female mice of FVB genetic background (FVB/N and FVB/Mdr2^−/− mice, respectively). All mice were maintained under specific pathogen-free conditions with a 12-hour-light-dark cycle and permitted ad libitum consumption of water and a standard chow. FVB/Mdr2^−/− mice are reproducible model of spontaneously progressive chronic biliary liver disease associated with fibrosis, with histological lesions closely resembling human PSC. Though the Mdr2^−/− mouse is well-established for the investigation of PSC, little is known about EHBD injury in this model. 1. […] The liver repair effect in Mdr2^−/− mice treated with L-NAC was assessed. […]

Structure (SMILES): CC(=O)N[C@@H](CS)C(=O)O [L-NAC, N-acetyl-L-cysteine]
- histological damage, including coarse chromatin and nuclear crowding (H&E) ([1]; EHBDs from 2-week old Mdr2−/− mice, 5 μM L-NAC in fresh BEC medium, 24 hours): improved
- expression of the tight junction protein ZO-1 (immunostaining) ([1]; EHBDs from 2-week old Mdr2−/− mice, 5 μM L-NAC, 24 hours): restored apical tight junction expression
- restoration of the apical tight junction ZO-1 (immunostaining) ([1]; EHBDs from 16-week old Mdr2−/− mice, 5 μM L-NAC, 24 hours): not seen; also recorded: poor ZO-1 restoration
- duct architecture / morphology (H&E) ([1]; Mdr2−/− EHBD explants, L-NAC and fresh BEC media for 24 hours): improved duct architecture with a more normal appearing columnar epithelium; also recorded: substantial morphological recovery
- inflammatory cell infiltration around the portal areas (H&E) [2]: reduction in inflammatory cell infiltration
- portal fibrosis in liver (H&E) [2]: reduced portal fibrosis
- liver fibrosis (Sirius Red staining) ([2]; vs untreated mouse): reduction in liver fibrosis
